In patent US7531194B2, “Plant extracts for the treatment of rheumatoid arthritis” (Development Center for Biotechnology, priority 2006, dated 2009):

Assays:
Type in all cases: in vivo, Lewis rats
[1] = tested on: CIA rats; test: Maximum arthritic index (MAI) of CIA rats fed PA extracts (Embodiment 4)
Method: After immunization, the rats were observed three times a week. The changes of redness and swelling or the like in limbs were recorded, and photographs were taken and filed for comparison. The scoring of the examinations was based on 5 grades as follows:
Maximum arthritic index, average MAI for each group was calculated as follows: Average MAI=Total of MAI recorded in limbs of each rat (0: no CIA occurs, 16: highest score)/4/total rat number of each group
(§1) In the present animal test, the test animals and apparatus used are the same as those disclosed in embodiment 2.
(§2) The animal test scheme is shown as FIG. 11. Bovine collagen type II was dissolved in 0.1 M acetic acid solution, stirred to dissolve thoroughly, and formulated into solutions of concentrations of 1.5 and 3 mg/ml, which were stored at 4° C. for later use. For the first immune injection, 100 μl of C II solution was emulsified with an equal amount of CFA, and injected subcutaneously (200 μl/rat) in the root portions of tails of the rats after the emulsification was complete. […] After about 15 days, the second immunization was done. 100 μl of C II solution was emulsified with an equal amount of IFA, and injected subcutaneously (200 μl/rat) in the root portions of tails of the rats after the emulsification was complete. Approximately from Day 18, the symptoms of arthritis were observed (CIA rats), and PA and CBX were fed from Day 19 until Day 38.

[2] = tested on: IL-1β; test: PEC cytokine IL-1β, CIA rats fed PA extracts (Embodiment 4)
Method: (§3) 1. After carbon dioxide euthanasia, the outer furs of the rat abdominal cavity were cut out by scissors, to expose the whole abdominal cavity.
(§4) 2. HBSS buffer was injected into the abdominal cavity batch-wise by a 10 ml syringe to make a total volume of about 20 ml/rat.
(§5) 3. The abdominal cavity of the rat was opened after the abdomen was gently kneaded. An incision of about 2 cm was made in the abdominal cavity by using scissors. Peritoneal exudation cell (PEC) liquid (about 10 to 15 ml of cellular fluid could be collected) was drawn with a syringe, and placed into a 50 ml centrifuge tube.
(§6) 4. The supernatant was removed after the liquid was centrifuged at 1500 rpm for 5 minutes. 10 ml of HBSS buffer was added to wash, and then centrifuged, after which the supernatant was removed.
(§7) 5. The cell concentration was adjusted to 2×10^6 cells/ml with a fresh culture medium (containing antibiotics).
(§8) 6. The cell suspension was divided into a 48-well plate at 0.5 ml/well.
(§9) 7. An additional. 0.5 ml of lipopolysaccharides (LPS) (20 μg/ml) was added separately, making a final concentration of 10 μg/ml.
(§10) 8. Finally, it was placed into a 37° C. incubator for 24 hours. The supernatant was collected, and stored in −20° C. The concentrations of cytokine TNF-α, IL-6, and IL-1β were analyzed by using ELISA kit.
as §1
The animal test scheme is shown as FIG. 11. Bovine collagen type II was dissolved in 0.1 M acetic acid solution, stirred to dissolve thoroughly, and formulated into solutions of concentrations of 1.5 and 3 mg/ml, which were stored at 4° C. for later use. For the first immune injection, 100 μl of C II solution was emulsified with an equal amount of CFA, and injected subcutaneously (200 μl/rat) in the root portions of tails of the rats after the emulsification was complete. […] After about 15 days, the second immunization was done. […]

[3] = tested on: CIA rats; test: Joint swelling degree (toe thickness) of CIA rats fed PA extracts (Embodiment 4)
Method: The thickness changes of soles of rats were measured by a Vernier Caliper (twice per week), and there were eight measurement sites in total in each rat, including one site at the center of each sole of the two front feet respectively, and three sites in each of the two back feet (ankle joint, sole, and root portion of toe) respectively.
as §1, §2

[4] = tested on: IL-6; test: PEC cytokine IL-6, CIA rats fed PA extracts (Embodiment 4); settings: PEC of CIA rats, gavage Day 19-38; doses as in the 4th table
Method: as §3, §4, §5, §6, §7, §8, §9, §10
In the present animal test, the test animals and apparatus used are the same as those disclosed in embodiment 2. […]

[5] = tested on: Rheumatoid factor (RF); test: Serum RF of CIA rats fed PA extracts (Embodiment 4)
Method: 1. Collagen was formulated in a coating buffer to a concentration of 40 μg/ml, 0.1 ml of which was added into a 96-well micro plate respectively, and was kept in 4° C. overnight.
2. After washing with Tris buffer three times, 0.2 ml of blocking buffer containing 1% BSA was added into each well. The reaction lasted for 2 hours at room temperature, and then was washed by Tris buffer three times again.
3. After the serum sample was diluted appropriately with Tris buffer containing 0.05% Tween 20 ( 1/20 or 1/40), 0.1 ml serum sample was added into each well of the 96-well micro plate. The reaction lasted for 2 hours at room temperature, and then was washed by Tris buffer three times again.
4. Coated anti-rat immunoglobulin M (IgM) was combined with horseradish […] (HRP), appropriately diluted ( 1/12000), and then added into the 96-well micro plate. The reaction lasted 2 hours at room temperature, and then was washed by Tris buffer three times again.
5. 0.1 ml of tetramethyl benzidine (TMB) was directly added into each well for color reaction, and then a stopping solution was added to stop the reaction. Finally, absorption (O.D) value was read out at the wavelength of 450 nm.
as §1, §2

[6] = gavage Day 19-38, doses as in the 4th table
[7] = PEC of CIA rats, gavage Day 19-38, doses as in the 4th table

Cc1ccc(-c2cc(C(F)(F)F)nn2-c2ccc(S(N)(=O)=O)cc2)cc1 [CBX, Ceelebrex]
MAI, inhibitory effect [1, 6]: (40%) | MAI, inhibitory effect (grade) [1, 6]: ++ (“++” represents 25 to 50% of inhibitory effect) | effect on the arthritic indices (MAI) of CIA rats ([1]; gavage Day 19 until Day 38, FIG. 13): most preferred | IL-1β, inhibitory effect [2, 7]: (38%) | IL-1β, inhibitory effect (grade) [2, 7]: ++ (“++” represents 25 to 50% of inhibitory effect) | inhibition of PEC secreting IL-1β ([2]; PEC of fed CIA rats, FIG. 17): significantly inhibits | Toe thickness, inhibitory effect (grade) ([3]; gavage Day 19-38, CBX 18, PA-EtOH 40.5, PA-F1 3.0, PA-F2 1.13, PA-F3 11.3, PA-F4 11.3 mg/kg/day): ++ (“++” represents 25 to 50% of inhibitory effect) | Toe thickness, inhibitory effect [3, 6]: (49%) | IL-6, inhibitory effect [4]: (36%) | IL-6, inhibitory effect (grade) [4]: ++ (“++” represents 25 to 50% of inhibitory effect) | reduction of serum RF value ([5]; Day 30 compared to Day 18, FIG. 15): about 52% | reduction of serum RF value ([5]; Day 37 compared to Day 18, FIG. 15): about 66% | RF, inhibitory effect [5, 6]: (43%) | RF, inhibitory effect (grade) [5, 6]: ++ (“++” represents 25 to 50% of inhibitory effect)
